As usually defined, the melting point is the temperature, or range, at which the solid turns liquid. What is called inhibition is the share of the control response that was lost under treatment.

SMILES strings stand for the structures. Where a name gives a salt, the structure may show the parent alone.

For series [1], the system named is VCAM-1 (vascular cell adhesion molecule-1). As to the kind of experiment: VCAM-1 ELISA on cell layers of stimulated human aortic endothelial cells. In kind it is cell-based. The note with it: Homo sapiens, Endothelial cell, HAECs treated with TNFα (0.05 ng/ml) or glycated human serum albumin (300 μg/ml) for 18-24 h; read-out: IC50 in VCAM-1 enzyme-linked immunosorbent assay. As for the experimental part:
(§1) For inflammation assays, human aortic endothelial cells (HAECS) in 96 well plates were washed once with treatment medium (basal medium containing 1% FBS). Cells were treated with an inflammatory agent such as TNFα (0.05 ng/ml) or glycated human serum albumin (US Biologicals) as source of advanced glycation end products (AGEs) (300 μg/ml) for 18-24 h in the presence or absence of specified amount of compound. Cell supernatants were collected and used for the estimation of MCP-1 (monocyte chemoattractant protein 1) or IL-6 (interleukin-6) by ELISA. Cell layers were washed and used for determining the levels of vascular cell adhesion molecule-1 (VCAM-1).
The cells were fixed cells with 100% methanol for 10 min at room temperature. The methanol was removed and the plate was air-dried. 100 ul of 1:1000 diluted primary antibody (polyclonal goat anti-human VCAM-1—R&D Systems #BBA19) was then added and incubated for 2 h at 37 C. The cells were washed with PBS and 100 ul of 1:5000 dilution of secondary antibody (rabbit anti-goat IgG-HRP—Zymed #81-1620) was added and incubated for 1 h at room temperature. Cells were washed and 100 ul of substrate solution (R&D Systems# DY999) was added and incubated for 20 min in the dark at room temp. 50 μl of stop solution (2N sulfuric acid) was added to the wells and absorbency at 450 nm was noted.
(In an ELISA, binding on a coated surface is turned into a signal by an enzyme label.)

Series [2] has as its system human aortic smooth muscle cells. The experiment in a line: Smooth muscle cell proliferation assay (radiolabeled thymidine incorporation or CellTiter AQ). In kind it is cell-based. The note with it: human aortic SMC; for IC50: 24 h post treatment in serum-containing growth medium, read-out: Activity: concentration giving 50% inhibition of smooth muscle cell proliferation. As for the experimental part:
Primary cultures of human aortic smooth muscle cells were obtained from Clonetics. SMC were initially grown in T-75 flasks prior to seeding in 96 well plates. The 96-well plates were seeded with 4000 cells/well. The following day cells were washed with serum free medium and left in serum free media for 24 hours for serum starvation. The next day cells received growth medium containing serum with or without compound. 24 h post treatment cell proliferation was assayed either assessing the incorporation of radiolabeled thymidine to DNA or using a non-radioactive cell proliferation kit from Promega (CellTiter AQ).
Background: Uptake of a labelled nucleoside into DNA is a usual measure of proliferation.

In series [3] the test system is MCP-1 (monocyte chemoattractant protein 1). As to the kind of experiment: MCP-1 ELISA on supernatants of stimulated human aortic endothelial cells. Format: cell-based. The note with it: Homo sapiens, Endothelial cell, HAECs treated with TNFα (0.05 ng/ml) or glycated human serum albumin (300 μg/ml) for 18-24 h; read-out: IC50 in MCP-1 enzyme-linked immunosorbent assay. The protocol: as §1
MCP-1 ELISA was carried out using Quantikine Human MCP-1 kit as described by the manufacturer (R&D Systems, Inc.). Mouse anti-human MCP-1 was used as the capture antibody and HRP (horse radish peroxidase)-conjugated goat anti-human MCP-1 antibody was used as detection antibody. Culture medium was incubated with the capture antibody (in 96-well plate) for 2 h at room temperature. Wells were washed three times with wash buffer (0.05% Tween-20 in PBS) followed by incubation with detection antibody for 2 h at room temperature. Color development was read at […] in a microplate reader.

In series [4] the test system is IL-6 (interleukin-6). As to the kind of experiment: IL-6 ELISA on media of stimulated human aortic endothelial cells. In kind it is cell-based. The note with it: Endothelial cell; HAECs treated with TNFα (0.05 ng/ml) or glycated human serum albumin (300 μg/ml) for 18-24 h; read-out: IC50 in IL-6 enzyme-linked immunosorbent assay. As for the experimental part: as §1
IL-6 levels in endothelial cell media were determined using DuaSet IL-6 ELISA kit from R&D Systems (Cat No DY206) as described by the manufacturer. Mouse anti-human IL-6 antibody was used as the capture antibody and biotinylated goat anti-human IL-6 was used as detection antibody. Culture medium was incubated with the capture antibody (in 96-well plate) for 2 h at room temperature. Wells were washed three times with wash buffer (0.05% Tween-20 in PBS) followed by incubation with detection antibody for 2 h at room temperature. The wells were then incubated with streptavidin HRP and color development was read at 450 nm in a microplate reader.

`CCCc1nn(C)c2c(Nc3ccc(OC)c(Cl)c3)nc(-c3ccc(F)cc3)nc12.Cl` [E 2, (3-chloro-4-methoxy-phenyl)-[5-(4-fluoro-phenyl)-1-methyl-3-propyl-1H-pyrazolo[4,3-d]pyrimidin-7-yl]-amine-hydrochloride] registered a melting point of 253.65 °C. In addition, the IC50 in series [1] stood at 10.4 µM. Moreover, the IC50 in series [2] stood at 1.62 µM. For the same molecule, the IC50 in series [3] was 13.4 µM. For the same molecule, the IC50 in series [4] worked out at 9 µM.
Take `CCCc1nn(C)c2c(Nc3ccc4c(c3)OCO4)nc(-c3ccc(F)cc3)nc12.Cl` [E 8, benzo[1,3]dioxol-5-yl-[5-(4-fluoro-phenyl)-1-methyl-3-propyl-1H-pyrazolo[4,3-d]pyrimidin-7-yl]-amine-hydrochloride]: the melting point is under 260 °C. Further, the IC50 in series [1] was 12.4 µM. Moreover, the IC50 in series [2] amounted to 1 µM. For the same molecule, in series [3], the IC50 was 8.7 µM.
For the molecule `CCCc1nn(C)c2c(Nc3ccc(OC)c(F)c3)nc(-c3ccc(F)cc3)nc12` [E 1, (3-fluoro-4-methoxy-phenyl)-[5-(4-fluoro-phenyl)-1-methyl-3-propyl-1H-pyrazolo[4,3-d]pyrimidin-7-yl]-amine hydrochloride], the IC50 in series [1] is 11.8 µM; in series [2], 0.89 µM; in series [3] it was 7.2 µM; in series [4] it was 5.4 µM.
As for `Cl.Fc1ccc(-c2nc(Nc3ccc(Cl)c(C(F)(F)F)c3)c3cnn(-c4ccccc4)c3n2)cc1` [E 81, (4-chloro-3-trifluoromethyl-phenyl)-[6-(4-fluoro-phenyl)-1-phenyl-1H-pyrazolo[3,4-d]pyrimidin-4-yl]-amine hydrochloride], the melting point came out at 203.83 °C. The IC50 in series [1] came to 8.9 µM. In series [2], the IC50 worked out at 3.9 µM. In addition, the IC50 in series [3] amounted to 5.2 µM.
As for `COc1ccc(Nc2nc(-c3ccc(F)cc3)cc3c2c(C)nn3C)cc1Cl` [E 72, (3-chloro-4-methoxy-phenyl)-[6-(4-fluoro-phenyl)-1,3-dimethyl-1H-pyrazolo[4,3-c]pyridin-4-yl]-amine hydrochloride], the results for the IC50 in series [1], in series [2] and in series [3] were 14 µM, 1.3 µM and 3.8 µM, respectively.
On to `CCCc1nn(C)c2c(Nc3ccc(OC)c(F)c3)nc(-c3cccs3)nc12.Cl` [E 10, (3-fluoro-4-methoxy-phenyl)-(1-methyl-3-propyl-5-thiophen-2-yl-1H-pyrazolo[4,3-d]pyrimidin-7-yl) -amine hydrochloride], for which the melting point lay in the range of 238 to 242 °C. Moreover, the IC50 in series [1] amounted to 11.8 µM. The molecule also registered an inhibition at 1 µM in series [2] (at 1 μM, 24 h post treatment) of 96%. Further, the IC50 in series [3] stood at 1.6 µM.
In the case of `CCCc1nn(C)c2c(Nc3ccc(OC)c(F)c3)nc(-c3ccccc3)nc12.Cl` [E 28, (3-fluoro-4-methoxy-phenyl)-(1-methyl-5-phenyl-3-propyl-1H-pyrazolo[4,3-d]pyrimidin-7-yl)-amine hydrochloride], the melting point lay within 248 to 250 °C. The IC50 in series [1] was 8.4 µM. Also, in series [2] (at 5 μM, 24 h post treatment), the inhibition at 5 µM stood at 70%. Further, the IC50 in series [3] was 7.5 µM.
Consider `CCCc1nn(C)c2c(Nc3ccc4c(c3)OCO4)nc(-c3cccs3)nc12` [E 52, benzo[1,3]dioxol-5-yl-(1-methyl-3-propyl-5-thiophen-2-yl-1H-pyrazolo[4,3-d]pyrimidin-7-yl)-amine hydrochloride], for which the figures for the IC50 in series [1], in series [2] and in series [3] were 10.9 µM, 0.5 µM and 8.7 µM, respectively.
`CCCc1nn(C)c2c(Nc3ccc(OC)c(Cl)c3)nc(-c3ccccc3)nc12.Cl` [E 27, (3-chloro-4-methoxy-phenyl)-(1-methyl-5-phenyl-3-propyl-1H-pyrazolo[4,3-d]pyrimidin-7-yl)-amine hydrochloride]: the melting point lay in the range of 238 to 240 °C. For the same molecule, the IC50 in series [1] turned out to be 8.4 µM. In series [2], the IC50 is 1.28 µM. The IC50 in series [3] is 5.7 µM. Besides, in series [4], the IC50 turned out to be 9.6 µM.

Values taken from US20060128729A1, “Novel bicyclic heterocyclic compounds, process for their preparation and compositions containing them” (priority 2004, published 2006).
